Test results reported in ChEMBL document CHEMBL5715945 (Cancer Biol Ther, 2010).
Active and inactive are the calls of the source. No cut-off for these calls is given here.

Columns and labels:
ID8 = assay: Upregulation of FAK level in mouse ID8 cells harbouring mCherry red fluorescent protein at 0.1 to 1 uM incubated for 1 hr by immunoblotting analysis; assay type: functional, cell-based; details: dose 0.1-1 µM
MDA-MB-231 = assay: Upregulation of FAK level in human MDA-MB-231 cells harbouring mCherry red fluorescent protein at 0.1 to 1 uM incubated for 1 hr by immunoblotting analysis; assay type: functional, cell-based; details: dose 0.1-1 µM
4T1 [1] = assay: Inhibition of cell migration in mouse 4T1 cells at 1 uM incubated for 22 hrs by wound healing assay; assay type: functional, cell-based
4T1 [2] = assay: Inhibition of cell migration in mouse 4T1 cells assessed as wound closure at 1 uM incubated for 22 hrs by wound healing assay (reference value: 89%); assay type: functional; set-up: scale not given: the % may be the effect or the level left
4T1 [3] = assay: Induction of apoptosis in mouse 4T1 adherent cells at 1 uM incubated for 72 hrs by PI staining based flow cytometry analysis; assay type: functional, cell-based
4T1 [4] = assay: Induction of cell cycle arrest in mouse 4T1 adherent cells assessed as accumulation at S phase at 1 uM measured after 72 hrs by PI staining based flow cytometry analysis (reference value: 12.5%); assay type: functional
4T1 [5] = assay: Induction of cell cycle arrest in mouse 4T1 adherent cells assessed as accumulation at G2/M phase at 1 uM measured after 72 hrs by PI staining based flow cytometry analysis (reference value: 5.6%); assay type: functional
4T1 [6] = assay: Induction of apoptosis in mouse 4T1 suspended cells assessed as increase in cleaved caspase 3 expression at 0.4 uM incubated for 24 hrs by immunoblotting analysis; assay type: functional, cell-based
4T1 [7] = assay: Induction of apoptosis in mouse 4T1 adherent cells assessed as increase in cleaved caspase 3 expression at 0.4 uM incubated for 24 hrs by immunoblotting analysis; assay type: functional, cell-based
4T1 [8] = assay: Antiproliferative activity against mouse 4T1 cells cultured as 3D spheroids assessed as maximal effect at 0.2 uM measured after 72 hrs by phase contrast microscopic analysis; assay type: functional, cell-based
4T1 [9] = assay: Effect on p130Cas phosphorylation at Tyr410 residue in mouse 4T1 cultured as 3D spheroids at 0.1 uM incubated for 24 hrs by immunoblotting analysis; assay type: functional, cell-based
4T1 [10] = assay: Effect on p130Cas phosphorylation in mouse 4T1 cultured as 3D spheroids at 0.1 to 1 uM incubated for 24 hrs by immunoblotting analysis; assay type: functional, cell-based; details: dose 0.1-1 µM
4T1 [11] = assay: Effect on Src phosphorylation at Y416 residue in mouse 4T1 cultured as 3D spheroids at 0.1 to 1 uM incubated for 24 hrs by immunoblotting analysis; assay type: functional, cell-based; details: dose 0.1-1 µM
4T1 [12] = assay: Inhibition of colony formation in mouse 4T1 cells assessed as reduction in cell number measured after 10 days by phase contrast microscopy analysis; assay type: functional, cell-based; details: dose 0.4-1 µM, time 10.0 day
4T1 [13] = assay: Inhibition of colony formation in mouse 4T1 cells assessed as reduction in cell size measured after 10 days by phase contrast microscopy analysis; assay type: functional, cell-based; details: dose 0.4-1 µM, time 10.0 day
4T1 [14] = assay: Antitumor activity against mouse 4T1 cells harbouring mCherry red fluorescent protein implanted in BALB/c mouse assessed as increase in apoptosis in tumor at 30 to 100 mg/kg, sc bid measured after 5 days by TUNEL staining based microscopic analysis; assay type: functional, organism-based; details: dose 30-100 mg/kg, time 5.0 day
[15] = molecular target: Insulin receptor (Homo sapiens) (UniProt P06213); assay: Inhibition of IR (unknown origin) at 1 uM relative to control; values are per cent of control
[16] = molecular target: Vascular endothelial growth factor receptor 2 (Homo sapiens) (UniProt P35968); assay: Inhibition of KDR (unknown origin) at 1 uM relative to control; values are per cent of control
[17] = molecular target: Tyrosine-protein kinase JAK2 (Homo sapiens) (UniProt O60674); assay: Inhibition of JAK2 (unknown origin) at 1 uM relative to control; values are per cent of control
[18] = molecular target: cAMP-dependent protein kinase (PKA) (Homo sapiens) (UniProt P22694+P17612+P22612); assay: Inhibition of PKA (unknown origin) at 0.1 uM relative to control; values are per cent of control
[19] = molecular target: ALK tyrosine kinase receptor (Homo sapiens) (UniProt Q9UM73); assay: Inhibition of ALK (unknown origin) at 0.1 uM relative to control; values are per cent of control
[20] = molecular target: Tyrosine-protein kinase ABL1 (Homo sapiens) (UniProt P00519); assay: Inhibition of Abl (unknown origin) at 0.1 uM relative to control; values are per cent of control
[21] = molecular target: Casein kinase I isoform gamma-1 (Homo sapiens) (UniProt Q9HCP0); assay: Inhibition of CK1g1 (unknown origin) at 1 uM relative to control; values are per cent of control
[22] = molecular target: RAF proto-oncogene serine/threonine-protein kinase (Homo sapiens) (UniProt P04049); assay: Inhibition of c-RAF (unknown origin) at 1 uM relative to control; values are per cent of control
Sequence of RAF proto-oncogene serine/threonine-protein kinase (Homo sapiens) (P04049 whole entry): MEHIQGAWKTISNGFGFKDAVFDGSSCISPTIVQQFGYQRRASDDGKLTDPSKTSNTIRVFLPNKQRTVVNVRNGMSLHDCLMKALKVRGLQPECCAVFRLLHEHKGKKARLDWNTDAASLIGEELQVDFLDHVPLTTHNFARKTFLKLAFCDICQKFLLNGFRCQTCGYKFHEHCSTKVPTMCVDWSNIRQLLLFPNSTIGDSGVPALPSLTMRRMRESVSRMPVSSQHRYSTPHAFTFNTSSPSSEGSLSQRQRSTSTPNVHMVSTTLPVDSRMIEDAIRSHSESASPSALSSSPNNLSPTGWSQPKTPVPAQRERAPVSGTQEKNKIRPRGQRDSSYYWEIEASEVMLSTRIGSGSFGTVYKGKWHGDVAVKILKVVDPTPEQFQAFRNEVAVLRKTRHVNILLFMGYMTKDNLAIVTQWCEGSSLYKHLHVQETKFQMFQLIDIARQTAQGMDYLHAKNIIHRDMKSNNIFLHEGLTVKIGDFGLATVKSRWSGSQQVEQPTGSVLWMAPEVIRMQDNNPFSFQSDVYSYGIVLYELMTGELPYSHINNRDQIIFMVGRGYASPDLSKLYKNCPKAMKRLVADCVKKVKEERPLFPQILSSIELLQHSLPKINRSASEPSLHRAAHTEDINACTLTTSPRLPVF

[23] = molecular target: Death-associated protein kinase 1 (Homo sapiens) (UniProt P53355); assay: Inhibition of DAPK1 (unknown origin) at 1 uM relative to control; values are per cent of control
Sequence of Death-associated protein kinase 1 (Homo sapiens) (P53355 whole entry, looked up): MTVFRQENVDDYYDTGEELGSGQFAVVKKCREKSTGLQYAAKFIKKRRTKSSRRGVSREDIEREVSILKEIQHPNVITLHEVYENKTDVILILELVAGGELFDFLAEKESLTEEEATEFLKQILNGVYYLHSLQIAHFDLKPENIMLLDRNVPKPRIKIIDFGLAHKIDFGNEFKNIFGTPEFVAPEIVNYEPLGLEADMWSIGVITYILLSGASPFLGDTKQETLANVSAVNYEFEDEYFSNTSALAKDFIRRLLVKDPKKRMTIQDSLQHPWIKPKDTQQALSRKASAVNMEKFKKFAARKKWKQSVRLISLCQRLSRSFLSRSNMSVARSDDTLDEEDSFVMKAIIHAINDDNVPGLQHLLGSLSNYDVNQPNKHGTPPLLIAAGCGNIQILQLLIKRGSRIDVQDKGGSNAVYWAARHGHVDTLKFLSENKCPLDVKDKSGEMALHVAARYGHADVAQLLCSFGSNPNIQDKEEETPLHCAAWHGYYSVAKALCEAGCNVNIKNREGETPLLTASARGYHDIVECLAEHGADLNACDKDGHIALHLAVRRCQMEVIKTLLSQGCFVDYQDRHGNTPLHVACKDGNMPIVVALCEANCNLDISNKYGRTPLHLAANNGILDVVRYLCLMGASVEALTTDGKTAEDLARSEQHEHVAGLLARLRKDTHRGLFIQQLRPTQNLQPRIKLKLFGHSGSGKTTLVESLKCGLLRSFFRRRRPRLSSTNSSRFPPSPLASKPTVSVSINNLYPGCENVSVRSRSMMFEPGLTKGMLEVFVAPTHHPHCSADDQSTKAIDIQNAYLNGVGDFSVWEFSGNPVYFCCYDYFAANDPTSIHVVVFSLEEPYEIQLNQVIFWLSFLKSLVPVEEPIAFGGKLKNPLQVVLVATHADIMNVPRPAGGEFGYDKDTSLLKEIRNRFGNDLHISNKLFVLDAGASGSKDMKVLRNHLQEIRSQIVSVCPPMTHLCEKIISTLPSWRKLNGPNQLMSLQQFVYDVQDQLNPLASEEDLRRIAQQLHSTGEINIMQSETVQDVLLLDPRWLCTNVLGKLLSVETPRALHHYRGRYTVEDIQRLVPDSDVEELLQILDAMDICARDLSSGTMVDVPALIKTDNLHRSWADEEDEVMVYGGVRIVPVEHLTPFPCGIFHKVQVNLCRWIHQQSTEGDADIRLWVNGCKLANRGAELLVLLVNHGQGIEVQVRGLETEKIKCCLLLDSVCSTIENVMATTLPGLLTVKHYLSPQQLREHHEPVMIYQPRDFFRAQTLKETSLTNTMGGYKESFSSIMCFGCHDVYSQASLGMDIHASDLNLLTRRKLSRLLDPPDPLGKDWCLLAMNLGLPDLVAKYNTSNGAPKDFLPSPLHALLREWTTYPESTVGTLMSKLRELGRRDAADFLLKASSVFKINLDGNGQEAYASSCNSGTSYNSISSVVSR

[24] = molecular target: Mitogen-activated protein kinase 1 (Homo sapiens) (UniProt P28482); assay: Inhibition of MAPK1 (unknown origin) at 1 uM relative to control; values are per cent of control
[25] = molecular target: Epidermal growth factor receptor (Homo sapiens) (UniProt P00533); assay: Inhibition of EGFR (unknown origin) at 0.1 uM relative to control; values are per cent of control
[26] = molecular target: Activated CDC42 kinase 1 (Homo sapiens) (UniProt Q07912); assay: Inhibition of ACK1 (unknown origin) at 0.1 uM relative to control; values are per cent of control
Sequence of Activated CDC42 kinase 1 (Homo sapiens) (Q07912 whole entry, looked up): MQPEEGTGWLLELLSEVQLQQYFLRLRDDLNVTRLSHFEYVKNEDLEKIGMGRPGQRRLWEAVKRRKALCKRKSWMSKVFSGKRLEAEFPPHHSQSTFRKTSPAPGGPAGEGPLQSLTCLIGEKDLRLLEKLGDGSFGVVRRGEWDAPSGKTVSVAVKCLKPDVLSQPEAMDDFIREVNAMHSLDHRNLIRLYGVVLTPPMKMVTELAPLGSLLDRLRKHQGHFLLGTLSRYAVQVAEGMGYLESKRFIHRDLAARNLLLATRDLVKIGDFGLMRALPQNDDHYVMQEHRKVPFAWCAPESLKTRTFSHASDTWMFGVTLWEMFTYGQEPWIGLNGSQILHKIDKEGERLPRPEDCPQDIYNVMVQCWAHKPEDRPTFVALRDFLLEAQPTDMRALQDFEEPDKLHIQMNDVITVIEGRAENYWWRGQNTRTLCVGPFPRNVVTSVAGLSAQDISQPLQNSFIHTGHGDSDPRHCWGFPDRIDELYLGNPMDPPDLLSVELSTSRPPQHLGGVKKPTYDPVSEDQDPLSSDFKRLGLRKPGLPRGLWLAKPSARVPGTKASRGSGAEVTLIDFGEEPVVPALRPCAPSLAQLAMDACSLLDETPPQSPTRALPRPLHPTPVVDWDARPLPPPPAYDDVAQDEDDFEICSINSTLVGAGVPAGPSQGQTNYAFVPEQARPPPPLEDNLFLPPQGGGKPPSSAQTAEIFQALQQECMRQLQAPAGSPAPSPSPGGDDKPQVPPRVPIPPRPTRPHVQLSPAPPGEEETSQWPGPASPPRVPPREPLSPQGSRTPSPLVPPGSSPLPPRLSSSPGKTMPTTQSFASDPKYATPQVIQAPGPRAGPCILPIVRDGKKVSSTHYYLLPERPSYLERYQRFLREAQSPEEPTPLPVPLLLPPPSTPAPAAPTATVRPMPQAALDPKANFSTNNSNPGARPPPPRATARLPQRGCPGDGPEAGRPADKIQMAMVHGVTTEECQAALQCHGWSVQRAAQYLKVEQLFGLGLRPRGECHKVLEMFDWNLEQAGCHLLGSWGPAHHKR

[27] = molecular target: High affinity nerve growth factor receptor (Homo sapiens) (UniProt P04629); assay: Inhibition of TrkA (unknown origin) at 0.1 uM relative to control; values are per cent of control
Sequence of High affinity nerve growth factor receptor (Homo sapiens) (P04629 33-796 limits assumed): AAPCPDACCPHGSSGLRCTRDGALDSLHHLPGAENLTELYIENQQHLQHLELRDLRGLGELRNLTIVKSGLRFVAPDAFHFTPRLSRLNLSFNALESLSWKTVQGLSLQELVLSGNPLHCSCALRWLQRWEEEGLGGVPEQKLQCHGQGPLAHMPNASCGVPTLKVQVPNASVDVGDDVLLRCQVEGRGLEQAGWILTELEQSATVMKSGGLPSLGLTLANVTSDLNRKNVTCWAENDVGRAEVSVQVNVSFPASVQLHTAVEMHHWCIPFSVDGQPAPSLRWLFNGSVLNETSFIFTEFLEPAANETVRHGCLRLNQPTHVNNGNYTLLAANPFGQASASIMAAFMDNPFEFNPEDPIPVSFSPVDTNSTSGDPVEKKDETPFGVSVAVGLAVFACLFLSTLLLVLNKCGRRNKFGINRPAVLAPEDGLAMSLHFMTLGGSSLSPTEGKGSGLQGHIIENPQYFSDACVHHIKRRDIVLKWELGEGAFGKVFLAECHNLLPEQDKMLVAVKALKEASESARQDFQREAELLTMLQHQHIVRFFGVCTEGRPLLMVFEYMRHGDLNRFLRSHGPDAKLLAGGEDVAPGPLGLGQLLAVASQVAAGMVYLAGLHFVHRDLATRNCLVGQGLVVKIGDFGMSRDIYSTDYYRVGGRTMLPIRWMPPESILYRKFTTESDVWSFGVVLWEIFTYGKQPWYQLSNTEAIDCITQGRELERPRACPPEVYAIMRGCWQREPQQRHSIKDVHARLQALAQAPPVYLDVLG

Homo sapiens = organism: Homo sapiens; assay: Inhibition of p70S6K (unknown origin) at 1 uM relative to control; values are per cent of control
[28] = molecular target: Platelet-derived growth factor receptor beta (Homo sapiens) (UniProt P09619); assay: Inhibition of PDGFRb (unknown origin) at 1 uM relative to control; values are per cent of control
Sequence of Platelet-derived growth factor receptor beta (Homo sapiens) (P09619 whole entry): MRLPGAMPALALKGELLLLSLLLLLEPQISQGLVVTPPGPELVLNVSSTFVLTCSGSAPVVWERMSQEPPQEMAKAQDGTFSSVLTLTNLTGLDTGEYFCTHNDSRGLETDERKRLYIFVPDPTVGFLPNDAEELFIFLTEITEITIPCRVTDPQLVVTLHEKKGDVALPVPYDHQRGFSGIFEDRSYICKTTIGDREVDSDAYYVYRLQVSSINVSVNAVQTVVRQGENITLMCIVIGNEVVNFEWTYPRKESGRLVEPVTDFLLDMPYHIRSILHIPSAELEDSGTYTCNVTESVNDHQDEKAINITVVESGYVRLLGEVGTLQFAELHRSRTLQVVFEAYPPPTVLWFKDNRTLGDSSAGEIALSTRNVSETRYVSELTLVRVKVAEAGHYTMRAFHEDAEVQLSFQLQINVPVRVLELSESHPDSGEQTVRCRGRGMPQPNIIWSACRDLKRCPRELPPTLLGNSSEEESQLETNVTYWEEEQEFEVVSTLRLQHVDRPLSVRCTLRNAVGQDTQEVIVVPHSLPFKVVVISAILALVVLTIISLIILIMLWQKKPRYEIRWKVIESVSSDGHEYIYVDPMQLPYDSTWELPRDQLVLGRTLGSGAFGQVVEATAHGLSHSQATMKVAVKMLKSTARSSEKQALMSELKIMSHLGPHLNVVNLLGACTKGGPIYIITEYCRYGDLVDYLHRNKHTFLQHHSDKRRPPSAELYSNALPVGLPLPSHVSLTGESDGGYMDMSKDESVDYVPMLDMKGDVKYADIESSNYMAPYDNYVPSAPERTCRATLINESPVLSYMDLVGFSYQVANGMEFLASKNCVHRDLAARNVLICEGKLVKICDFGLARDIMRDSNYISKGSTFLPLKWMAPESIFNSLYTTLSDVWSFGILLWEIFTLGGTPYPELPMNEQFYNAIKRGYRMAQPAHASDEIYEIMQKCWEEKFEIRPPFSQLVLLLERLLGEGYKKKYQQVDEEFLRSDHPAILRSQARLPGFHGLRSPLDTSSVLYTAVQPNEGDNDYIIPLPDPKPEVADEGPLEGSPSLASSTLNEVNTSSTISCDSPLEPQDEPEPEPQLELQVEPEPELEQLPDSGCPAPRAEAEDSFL

[29] = molecular target: Mast/stem cell growth factor receptor Kit (Homo sapiens) (UniProt P10721); assay: Inhibition of c-kit (unknown origin) at 0.1 uM relative to control; values are per cent of control
[30] = molecular target: Aurora kinase A (Homo sapiens) (UniProt O14965); assay: Inhibition of Aurora-A (unknown origin) at 0.1 uM relative to control; values are per cent of control

CNC(=O)c1ccccc1Nc1cc(Nc2ccc(N3CCOCC3)cc2OC)ncc1C(F)(F)F [VS-4718]
Activity (ID8): Active | Activity (MDA-MB-231): Active | inhibition (4T1 [1]): Active | Activity (4T1 [2]): 40% | Activity (4T1 [3]): Active | Activity (4T1 [4]): 10% | Activity (4T1 [5]): 5.6% | Activity (4T1 [6]): Active | Activity (4T1 [7]): inactive | Activity (4T1 [8]): Active | Activity (4T1 [9]): Active | Activity (4T1 [10]): inactive | Activity (4T1 [11]): inactive | inhibition (4T1 [12]): Dose-Dependent Effect | inhibition (4T1 [13]): Dose-Dependent Effect | Activity (4T1 [14]): Active | residual activity [15]: 40% | residual activity [16]: 107% | residual activity [17]: 96% | residual activity [18]: 114% | residual activity [19]: 145% | residual activity [20]: 104% | residual activity [21]: 107% | residual activity [22]: 150% | residual activity [23]: 97% | residual activity [24]: 58% | residual activity [25]: 99% | residual activity [26]: 56% | residual activity [27]: 80% | residual activity (Homo sapiens): 97% | residual activity [28]: 105% | residual activity [29]: 119% | residual activity [30]: 69%
